# Experimental data published in patent publication US20040253597A1, “Novel protein and dna thereof” (priority 2001, published 2004).
# Biological target: T1, human TCH169 (Homo sapiens, UniProt Q86YT5)
# T1 construct: expressed in transfected cells
# Experiment: [1,5-^14C] citric acid uptake in the human TCH169 gene expression cell line
# Type: cell-based
# Settings: human TCH169 expressing CHO cells clone No. 2-11; NaCl buffer (140 mM NaCl) vs NMDG buffer and Mock cells; 37° C., 15 minutes, 30 minutes and an hour
# Description: Using human TCH169 gene expression cell line clone No. 2-11 acquired in EXAMPLE 7, the uptake of [1,5-^14C] citric acid was assayed. Human TCH169 gene expression cell line clone No. 2-11 was seeded on a 96 well plate in 4×10^4 cells per well, followed by incubation at 37° C. for 24 hours. After the medium was removed, the cells were washed 3 times with 150 μL NMDG buffer (140 mM N-methyl-D(−)-glucamine, 25 mM Hepes/Tris, 5.4 mM KCl, 1.8 mM CaCl2, 0.8 mM MgSO4, 5 mM glucose, pH 7.4-7.6), and 150 μL NMDG buffer was supplemented thereto followed by incubation at 37° C. for an hour. After the buffer was replaced with 90 μL NaCl buffer (140 mM NaCl, 25 mM Hepes/Tris, 5.4 mM KCl, 1.8 mM CaCl2, 0.8 mM MgSO4, 5 mM glucose, pH 7.4-7.6) or 90 μL NMDG buffer, 10 μL of 223 μM [1,5-^14C] citric acid (manufactured by Amersham-Pharmacia-Biotech) was added and incubation was performed at 37° C. for 15 minutes, 30 minutes and an hour followed by washing 3 times with 200 μL PBS (manufactured by Takara Shuzo Co., Ltd.). After 100 μL of Opitiphase ‘SuperMix’ (manufactured by Perkin-Elmer-Life Science) was added to the system and the mixture was stirred, the amount of [1,5-^14C] citric acid taken up into the cells was measured in terms of the radioactivity. […] CHO dhfr^− cells transfected with vector pcDNA3.1(+) (Mock) was also treated in a similar manner to measure the radioactivity as well.
# T1 sequence (Q86YT5 whole entry): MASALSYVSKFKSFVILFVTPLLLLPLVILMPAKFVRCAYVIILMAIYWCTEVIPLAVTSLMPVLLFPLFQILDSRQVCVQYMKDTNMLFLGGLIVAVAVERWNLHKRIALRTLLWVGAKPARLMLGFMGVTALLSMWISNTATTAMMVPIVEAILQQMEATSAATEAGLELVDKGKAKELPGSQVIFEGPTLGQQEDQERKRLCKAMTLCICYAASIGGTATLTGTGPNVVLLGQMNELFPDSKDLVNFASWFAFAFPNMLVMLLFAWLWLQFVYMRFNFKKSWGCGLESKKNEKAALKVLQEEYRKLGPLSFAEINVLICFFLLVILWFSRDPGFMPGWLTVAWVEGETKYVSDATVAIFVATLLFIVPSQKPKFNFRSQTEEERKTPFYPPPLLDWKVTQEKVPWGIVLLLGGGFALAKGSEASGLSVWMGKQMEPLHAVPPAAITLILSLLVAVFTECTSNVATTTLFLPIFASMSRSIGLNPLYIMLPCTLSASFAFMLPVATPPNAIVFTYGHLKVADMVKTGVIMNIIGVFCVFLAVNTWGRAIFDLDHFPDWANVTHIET
structure (smiles),measurement,value
"O=C(O)C(O)(C[14C](=O)O)C[14C](=O)O [[1,5-^14C] citric acid]","uptake of [1,5-^14C] citric acid into the cells (radioactivity)",taken up into the human TCH169 expression CHO cells
